Assay results from US20250002506A1, “IMPROVED PROCESS FOR THE PREPARATION OF LURBINECTEDIN AND ITS MORPHS THEREOF” (RK Pharma Inc., priority 2021, published 2025).

How the values were obtained:
[1] = Stability study: storage in a sealed reagent bottle at -20° C for three months (description, water content, HPLC purity, XRPD); format: physicochemical; parameters: HPLC impurity at RRT 0.07 / HPLC impurity at RRT 0.20 / HPLC impurity at RRT 0.85 / HPLC impurity at RRT 0.98 / HPLC impurity at RRT 1.02 / HPLC impurity at RRT 1.07 / HPLC impurity at RRT 1.17 / HPLC impurity at RRT 1.23 / HPLC impurity at RRT 1.31 / HPLC impurity at RRT 1.38 / HPLC impurity at RRT 1.41: unit not given here
Experimental: An appropriate amount of the sample of the amorphous as well as RK-1 polymorphic form of Lurbinectedin obtained in examples 5 to 9 was placed in a reagent bottle at-20° C. under a sealed condition for the period of three months to perform a stability test. X-ray powder diffraction pattern, HPLC purity as well as DSC Chromatogram of amorphous as well as RK-1 polymorphic form of Lurbinectedin was evaluated again after storing for period of 3 months. Result of the stability study of both amorphous (Obtained in Example 5) as well as RK-1 polymorphic form of Lurbinectedin (Obtained in Example 6) has been tabulated in Tables 1-2 given below. […] Characteristic peaks in the XRPD pattern and DSC chromatogram of RK-1 polymorphic form of Lurbinectedin obtained initially as well as after storing for the period of three months have been tabulated in Table 3 given below.

[2] = Chemical stability under long term and accelerated storage conditions; format: physicochemical
[3] = at 3 months (A/3M), -20° C, sealed

SMILES	HPLC impurity at RRT 0.07 [1, 3]	HPLC impurity at RRT 0.20 [1, 3]	HPLC impurity at RRT 0.85 [1, 3]	HPLC impurity at RRT 0.98 [1, 3]	HPLC impurity at RRT 1.02 [1, 3]	HPLC impurity at RRT 1.07 [1, 3]	HPLC impurity at RRT 1.31 [1, 3]	HPLC impurity at RRT 1.38 [1, 3]	HPLC impurity at RRT 1.41 [1, 3]	HPLC purity, LRBN [1, 3] [%]	Description ([1]; at 3 months, -20° C, sealed)	Water content ([1]; at 3 months, -20° C, sealed) [%]	Description ([1]; initial)	HPLC impurity at RRT 0.20 ([1]; initial)	HPLC impurity at RRT 0.98 ([1]; initial)	HPLC impurity at RRT 1.07 ([1]; initial)	HPLC impurity at RRT 1.17 ([1]; initial)	HPLC impurity at RRT 1.23 ([1]; initial)	HPLC impurity at RRT 1.31 ([1]; initial)	HPLC purity, LRBN ([1]; initial) [%]	further results
COc1ccc2[nH]c3c(c2c1)CCN[C@]31CS[C@@H]2c3c(OC(C)=O)c(C)c4c(c3[C@H](COC1=O)N1[C@@H]2[C@H]2c3c(cc(C)c(OC)c3O)C[C@@H]([C@@H]1O)N2C)OCO4 [Amorphous form of Lurbinectedin, Lurbinectedin]	0.06	0.02	0.01	0.03	0.05	0.02	0.02	0.01	0.01	99.77	Off white	9.91	Off white	0.02	0.03	0.02	0.04	0.03	0.02	99.81	Water content ([1]; initial): 9.67%; Stability on storage (XRPD pattern after three months same as obtained initially) ([1]; -20° C, sealed): stable on storage
COc1ccc2[nH]c3c(c2c1)CCN[C@]31CS[C@@H]2c3c(OC(C)=O)c(C)c4c(c3[C@H](COC1=O)N1[C@@H]2[C@H]2c3c(cc(C)c(OC)c3O)C[C@@H]([C@@H]1O)N2C)OCO4 [Pure Lurbinectedin, Lurbinectedin]	–	–	–	–	–	–	–	–	–	–	–	–	–	–	–	–	–	–	–	–	Period for which chemically stable [2]: about 6 months
COc1ccc2[nH]c3c(c2c1)CCN[C@]31CS[C@@H]2c3c(OC(C)=O)c(C)c4c(c3[C@H](COC1=O)N1[C@@H]2[C@H]2c3c(cc(C)c(OC)c3O)C[C@@H]([C@@H]1O)N2C)OCO4 [polymorphic form RK-1 of Lurbinectedin, Lurbinectedin]	0.06	0.02	0.01	0.03	0.05	0.02	0.02	0.01	0.01	99.77	Off white	10.1	Off white	0.03	0.03	0.02	0.04	0.03	0.02	99.86	Description ([1]; after 1 month, -20° C, sealed): Off white powder; Description ([1]; at 3 months, -20° C, sealed, listed as RK-1 polymorphic form of Lurbinectedin): Off white powder; Water content ([1]; initial): 9.69%; Description ([1]; initial, listed as RK-1 polymorphic form of Lurbinectedin): Off white powder; Stability on storage (XRPD pattern after three months same as obtained initially) ([1]; -20° C, sealed): stable on storage
